Earlier results, collected in patent US8871812B2, “Therapeutic regimen comprising PEG-interferon, ribavirin and VX-950 for the treatment of hepatitis” (priority 2008, dated 2014).

Tested on: HCV
Conditions: monotherapy; cited from earlier work

interferon alfa
cases with long term remission: ~25%
